ChEMBL document CHEMBL1140580, “Synthesis and characterization of trans-4-(4-chlorophenyl)pyrrolidine-3-carboxamides of piperazinecyclohexanes as ligands for the melanocortin-4 receptor” (Bioorg Med Chem Lett, 2007)

What was measured:
Melanocortin receptor 4 [1] = biological target: T1, Melanocortin receptor 4 (Homo sapiens, UniProt P32245); test: Displacement of […]NDPMSH from human MC4R expressed in HEK293 cells; format: cell-based
Melanocortin receptor 4 [2] = biological target: T1, Melanocortin receptor 4; test: Agonist activity at MC4R assessed as stimulation of cAMP release relative to alphaMSH; format: functional
Melanocortin receptor 4 [3] = biological target: T1, Melanocortin receptor 4; test: Agonist activity at MC4R assessed as stimulation of cAMP release; format: functional

T1 sequence (P32245 whole entry): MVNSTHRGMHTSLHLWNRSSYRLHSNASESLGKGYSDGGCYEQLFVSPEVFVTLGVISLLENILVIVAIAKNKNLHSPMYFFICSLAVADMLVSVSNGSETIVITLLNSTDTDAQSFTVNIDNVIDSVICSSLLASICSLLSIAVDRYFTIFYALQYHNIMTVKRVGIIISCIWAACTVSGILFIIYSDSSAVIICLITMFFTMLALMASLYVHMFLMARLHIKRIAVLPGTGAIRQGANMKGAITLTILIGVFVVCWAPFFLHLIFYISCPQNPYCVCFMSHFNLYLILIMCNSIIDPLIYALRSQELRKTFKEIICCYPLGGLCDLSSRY

Row | Structure (SMILES) | Ki (Melanocortin receptor 4 [1]) [nM] | Intrinsic activity (Melanocortin receptor 4 [2]) [%] | EC50 (Melanocortin receptor 4 [3]) [nM]
1 | CC(C)N1C[C@H](C(=O)N2CCN(C3(CNCc4ccc(N(C)C)cc4)CCCCC3)CC2)[C@@H](c2ccc(Cl)cc2)C1 | 65 | 16 | 1100
2 | CC(C)C(=O)N1C[C@H](C(=O)N2CCN(C3(CNCc4ccccc4)CCCCC3)CC2)[C@@H](c2ccc(Cl)cc2)C1 | 210 | 47 | 
3 | COc1ccc(CN(Cc2ccc(OC)cc2)CC2(N3CCN(C(=O)[C@H]4CN(C(C)C)C[C@@H]4c4ccc(Cl)cc4)CC3)CCCCC2)cc1 | 2800 |  | 
4 | CC(C)N1C[C@H](C(=O)N2CCN(C3(CNCc4ccc(Cl)cc4)CCCCC3)CC2)[C@@H](c2ccc(Cl)cc2)C1 | 90 | 29 | 4200
5 | CC(C)N1C[C@H](C(=O)N2CCN(C3(CNC(=O)Cc4ccccc4)CCCCC3)CC2)[C@@H](c2ccc(Cl)cc2)C1 | 510 |  | 
6 | NCCC(=O)N1C[C@H](C(=O)N2CCN(C3(CNCc4ccccc4)CCCCC3)CC2)[C@@H](c2ccc(Cl)cc2)C1 | 110 | 9 | 
7 | CC(N)C(=O)N1C[C@H](C(=O)N2CCN(C3(CNCc4ccccc4)CCCCC3)CC2)[C@@H](c2ccc(Cl)cc2)C1 (some centres undefined) | 430 | 3 | 
8 | CCC(=O)N1C[C@H](C(=O)N2CCN(C3(CNCc4ccccc4)CCCCC3)CC2)[C@@H](c2ccc(Cl)cc2)C1 | 210 | 19 | 
9 | CC(C)N1C[C@H](C(=O)N2CCN(C3(CNCc4ccc(C(F)(F)F)cc4)CCCCC3)CC2)[C@@H](c2ccc(Cl)cc2)C1 | 130 | 16 | 
10 | CC(C)N1C[C@H](C(=O)N2CCN(C3(CN(C)Cc4ccncc4)CCCCC3)CC2)[C@@H](c2ccc(Cl)cc2)C1 | 750 |  | 
11 | COc1ccc(CNCC2(N3CCN(C(=O)[C@H]4CN(C(C)C)C[C@@H]4c4ccc(Cl)cc4)CC3)CCCCC2)c(F)c1 | 1.8 | 26 | 1600
12 | CC(C)N1C[C@H](C(=O)N2CCN(C3(CNCc4ccsc4)CCCCC3)CC2)[C@@H](c2ccc(Cl)cc2)C1 | 22 | 31 | 840
13 | CC(C)N1C[C@H](C(=O)N2CCN(C3(CNCCc4ccccn4)CCCCC3)CC2)[C@@H](c2ccc(Cl)cc2)C1 | 690 |  | 
14 | CC(C)N1C[C@H](C(=O)N2CCN(C3(CNCc4cc5ccccc5n4C)CCCCC3)CC2)[C@@H](c2ccc(Cl)cc2)C1 | 1200 |  | 
15 | CC(C)N1C[C@H](C(=O)N2CCN(C3(CNCc4ccccn4)CCCCC3)CC2)[C@@H](c2ccc(Cl)cc2)C1 | 76 | 34 | 1200
16 | O=C([C@H]1CN(C2CCCC2)C[C@@H]1c1ccc(Cl)cc1)N1CCN(C2(CNCc3ccccc3)CCCCC2)CC1 | 17 | 33 | 1800
17 | COc1ccc(CN(CC2(N3CCN(C(=O)[C@H]4CN(C(C)C)C[C@@H]4c4ccc(Cl)cc4)CC3)CCCCC2)OC)cc1 | 1300 |  | 
18 | CC(C)N1C[C@H](C(=O)N2CCN(C3(CNCc4cccnc4)CCCCC3)CC2)[C@@H](c2ccc(Cl)cc2)C1 | 35 | 72 | 390
19 | CC(C)N1C[C@H](C(=O)N2CCN(C3(CNS(=O)(=O)Cc4ccccc4)CCCCC3)CC2)[C@@H](c2ccc(Cl)cc2)C1 | 340 | 40 | 
20 | CCNC(=O)N1C[C@H](C(=O)N2CCN(C3(CNCc4ccncc4)CCCCC3)CC2)[C@@H](c2ccc(Cl)cc2)C1 | 4600 |  | 
21 | O=C([C@H]1CN(Cc2ccccc2)C[C@@H]1c1ccc(Cl)cc1)N1CCN(C2(CNCc3ccccc3)CCCCC2)CC1 | 140 | 1 | 
22 | COc1ccc(CNCC2(N3CCN(C(=O)[C@H]4CN(C(C)C)C[C@@H]4c4ccc(Cl)cc4)CC3)CCCCC2)c(OC)c1 | 16 | 29 | 
23 | CC(C)N1C[C@H](C(=O)N2CCN(C3(CNCc4cccs4)CCCCC3)CC2)[C@@H](c2ccc(Cl)cc2)C1 | 37 | 58 | 590
24 | O=C(C1CCCC1)N1C[C@H](C(=O)N2CCN(C3(CNCc4ccccc4)CCCCC3)CC2)[C@@H](c2ccc(Cl)cc2)C1 | 180 | 26 | 
25 | CCC(=O)N1C[C@H](C(=O)N2CCN(C3(CNCc4ccncc4)CCCCC3)CC2)[C@@H](c2ccc(Cl)cc2)C1 | 3100 |  | 
26 | COc1ccc(CN(C)CC2(N3CCN(C(=O)[C@H]4CN(C(C)C)C[C@@H]4c4ccc(Cl)cc4)CC3)CCCCC2)cc1 | 110 |  | 
27 | O=C([C@H]1CNC[C@@H]1c1ccc(Cl)cc1)N1CCN(C2(CNCc3ccncc3)CCCCC2)CC1 | 2200 |  | 
28 | O=C([C@H]1CN(Cc2ccccc2)C[C@@H]1c1ccc(Cl)cc1)N1CCN(C2(CNCc3ccncc3)CCCCC2)CC1 | 200 |  | 

Row | Structure (SMILES) | Ki (Melanocortin receptor 4 [1]) [nM] | Intrinsic activity (Melanocortin receptor 4 [2]) [%] | EC50 (Melanocortin receptor 4 [3]) [nM]
29 | CC(=O)N1C[C@H](C(=O)N2CCN(C3(CNCc4ccncc4)CCCCC3)CC2)[C@@H](c2ccc(Cl)cc2)C1 | 3000 |  | 
30 | COc1ccc(CNCC2(N3CCN(C(=O)[C@H]4CN(C(C)C)C[C@@H]4c4ccc(Cl)cc4)CC3)CCCCC2)cc1 | 3.6 | 17 | 
31 | CC(C)N1C[C@H](C(=O)N2CCN(C3(CNCC4CCCCC4)CCCCC3)CC2)[C@@H](c2ccc(Cl)cc2)C1 | 300 |  | 
32 | CC(C)N1C[C@H](C(=O)N2CCN(C3(CNS(=O)(=O)c4ccccc4)CCCCC3)CC2)[C@@H](c2ccc(Cl)cc2)C1 | 330 | 20 | 
33 | CC(C)N1C[C@H](C(=O)N2CCN(C3(CNCc4nccn4C)CCCCC3)CC2)[C@@H](c2ccc(Cl)cc2)C1 | 390 | 31 | 
34 | CC(C)N1C[C@H](C(=O)N2CCN(C3(CNCc4ccc(F)cc4)CCCCC3)CC2)[C@@H](c2ccc(Cl)cc2)C1 | 44 | 61 | 6600
35 | COC(=O)c1ccc(CNCC2(N3CCN(C(=O)[C@H]4CN(C(C)C)C[C@@H]4c4ccc(Cl)cc4)CC3)CCCCC2)cc1 | 32 | 21 | 
36 | COCC(C)N1C[C@H](C(=O)N2CCN(C3(CNCc4ccccc4)CCCCC3)CC2)[C@@H](c2ccc(Cl)cc2)C1 (some centres undefined) | 100 | 7 | 
37 | CC(C)C(N)C(=O)N1C[C@H](C(=O)N2CCN(C3(CNCc4ccccc4)CCCCC3)CC2)[C@@H](c2ccc(Cl)cc2)C1 (some centres undefined) | 670 | 0 | 
38 | CC(C)N1C[C@H](C(=O)N2CCN(C3(CNCc4ccc5c(c4)OCO5)CCCCC3)CC2)[C@@H](c2ccc(Cl)cc2)C1 | 8.3 | 7 | 
39 | CCN(Cc1ccc(OC)cc1)CC1(N2CCN(C(=O)[C@H]3CN(C(C)C)C[C@@H]3c3ccc(Cl)cc3)CC2)CCCCC1 | 190 |  | 
40 | CC(C)CN(Cc1ccncc1)CC1(N2CCN(C(=O)[C@H]3CN(C(C)C)C[C@@H]3c3ccc(Cl)cc3)CC2)CCCCC1 | 2700 |  | 
41 | COc1ccc(CN(CC(C)C)CC2(N3CCN(C(=O)[C@H]4CN(C(C)C)C[C@@H]4c4ccc(Cl)cc4)CC3)CCCCC2)cc1 | 1800 |  | 
42 | CC(C)N1C[C@H](C(=O)N2CCN(C3(CNCc4cccc(F)c4)CCCCC3)CC2)[C@@H](c2ccc(Cl)cc2)C1 | 24 | 23 | 
43 | CCCC(=O)N1C[C@H](C(=O)N2CCN(C3(CNCc4ccccc4)CCCCC3)CC2)[C@@H](c2ccc(Cl)cc2)C1 | 190 | 8 | 
44 | CS(=O)(=O)N1C[C@H](C(=O)N2CCN(C3(CNCc4ccncc4)CCCCC3)CC2)[C@@H](c2ccc(Cl)cc2)C1 | 3400 |  | 
45 | CC(C)N1C[C@H](C(=O)N2CCN(C3(CNCc4ccccc4C(F)(F)F)CCCCC3)CC2)[C@@H](c2ccc(Cl)cc2)C1 | 140 |  | 
46 | CC(C)N1C[C@H](C(=O)N2CCN(C3(CN)CCCCC3)CC2)[C@@H](c2ccc(Cl)cc2)C1 | 1200 |  | 
47 | CC(=O)N(Cc1ccncc1)CC1(N2CCN(C(=O)[C@H]3CN(C(C)C)C[C@@H]3c3ccc(Cl)cc3)CC2)CCCCC1 | 1500 |  | 
48 | CNCC(=O)N1C[C@H](C(=O)N2CCN(C3(CNCc4ccccc4)CCCCC3)CC2)[C@@H](c2ccc(Cl)cc2)C1 | 100 | 8 | 
49 | CSc1ccc(CNCC2(N3CCN(C(=O)[C@H]4CN(C(C)C)C[C@@H]4c4ccc(Cl)cc4)CC3)CCCCC2)cc1 | 27 |  | 
50 | CC(C)Oc1ccc(CNCC2(N3CCN(C(=O)[C@H]4CN(C(C)C)C[C@@H]4c4ccc(Cl)cc4)CC3)CCCCC2)cc1 | 2.1 | 6 | 
51 | CCN(Cc1ccncc1)CC1(N2CCN(C(=O)[C@H]3CN(C(C)C)C[C@@H]3c3ccc(Cl)cc3)CC2)CCCCC1 | 1300 |  | 
52 | CC(=O)N1C[C@H](C(=O)N2CCN(C3(CNCc4ccccc4)CCCCC3)CC2)[C@@H](c2ccc(Cl)cc2)C1 | 190 | 13 | 
53 | CC(C)N1C[C@H](C(=O)N2CCN(C3(CNCc4ccc([N+](=O)[O-])cc4)CCCCC3)CC2)[C@@H](c2ccc(Cl)cc2)C1 | 52 |  | 
54 | CC(C)N1C[C@H](C(=O)N2CCN(C3(CNCc4ccccc4OC(F)(F)F)CCCCC3)CC2)[C@@H](c2ccc(Cl)cc2)C1 | 110 |  | 
55 | COCC(C)NCC1(N2CCN(C(=O)[C@H]3CN(C(C)C)C[C@@H]3c3ccc(Cl)cc3)CC2)CCCCC1 (some centres undefined) | 310 |  | 
